Experimental data taken from patent US12630527B2, “Broad spectrum anti-cancer compounds” (The Regents of the University of California, priority 2019, dated 2026).
Each block holds one molecule with its values, some of them ahead of it.

Tests used:
ALKBH5 = target: T1, ALKBH5 (Homo sapiens, UniProt Q6P6C2); assay: Fluorescence enzymatic inhibition assay (m6A7-Broccoli / DFHBI-1T), ALKBH5; format: biochemical; conditions: for IC50: Permeability Data and IC50 tables the 33rd table/the 34th table, unit inferred; for inhibition of ALKBH5 at the highest concentration measured: highest concentration 40 μM
T1 construct: SUMO (N); His10 (N); made in house; host or cells: E. coli BL21
T1 sequence (Q6P6C2 whole entry): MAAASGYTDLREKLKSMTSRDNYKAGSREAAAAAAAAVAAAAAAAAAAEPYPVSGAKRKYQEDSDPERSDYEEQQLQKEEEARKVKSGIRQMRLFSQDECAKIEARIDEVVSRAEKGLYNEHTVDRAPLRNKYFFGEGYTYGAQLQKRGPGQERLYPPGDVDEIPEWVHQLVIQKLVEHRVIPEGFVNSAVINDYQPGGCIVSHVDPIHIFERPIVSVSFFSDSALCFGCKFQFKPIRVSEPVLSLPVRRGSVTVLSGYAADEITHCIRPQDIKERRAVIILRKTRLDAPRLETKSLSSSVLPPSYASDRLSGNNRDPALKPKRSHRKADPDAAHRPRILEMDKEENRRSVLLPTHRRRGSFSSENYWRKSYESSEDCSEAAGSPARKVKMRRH
Description: (§1) E. coli BL21 competent cells (New England Biolabs) were transformed with pET28-SUMO-His10-FTO plasmid (a generous gift from the Jaffrey lab) by heat shock and spread on a LB Kanamycin agar plate, then incubated overnight at 37° C. 2-3 colonies were picked and transferred to 5 mL of LB media treated with kanamycin (0.5 mg mL^−1 final concentration), then grown overnight shaking at 37° C. The overnight culture was then transferred to 2 L of LB kanamycin media and incubated at 37° C. until OD 0.8. The culture was cooled at 4° C. for 20 mins and induced with 0.5 mM isopropyl β-D-1-thiogalactopyranoside (IPTG), then grown shaken at 16° C. Cell pellets were collected by centrifugation (5,000 g for 10 min at 4° C.) and the supernatant was discarded. The pellets were resuspended in B-PER Bacterial Protein Extraction Reagent (6 mL per gram) with DNase 1 (5 U per mL, RNase-free) and incubated at 4° C. for 1 hour. The suspension was centrifuged at 10,000 g for 20 min and the supernatant was transferred to a Talon Metal Affinity Resin column that had been pre-equilibrized with binding buffer (50 mM NaH2PO4 pH 7.2, 300 mM NaCl, 20 mM imidazole, 1 mM β-mercaptoethanol in RNase-free water). […] The eluant was combined and transferred to a Slyde-A-Lyzer Dialysis Cassette (20,000 MWCO, Thermo Scientific) and dialyzed overnight at 4° C. against dialysis buffer (50 mM Tris-HCl pH 7.4, 100 mM NaCl, 5 mM B-mercaptoethanol, 5% (v/v) glycerol in RNase-free water). […] ALKBH5 was expressed and purified from pET28-SUMO-His10-ALKBH5 plasmid by the same procedure described above.
(§2) Inhibitors were added in concentrations ranging from 0.008-40 μM; all inhibitors were dissolved in DMSO and added to a final concentration of 0.2% DMSO. […] After incubation at room temperature for 2 hours, the plates were left at 4° C. overnight (16 hours) to allow DFHBI-1T to bind to A7-Broccoli RNA. […] Sigmoidal dose-response curves were fitted in GraphPad Prism 6. All assays were performed in triplicate, with additional repetitions added as necessary.

[1] = QikProp calculation of clogP and membrane permeability (Caco-2, MDCK models); conditions: predicted permeability models; fold
Description: In order to identify chemically distinct inhibitors of FTO, we used a combination of structure-based drug design and molecular docking with the Schrödinger software suite to target the MA binding site of FTO. […] Interactions with these four residues were considered highly favorable. […] Docking poses for FTO-1-20 are in the supporting information (FIGS. 32-51). Hits showing promising docking scores (absolute value ≥7) were also analyzed by QikProp to assess their physicochemical properties. As existing FTO inhibitors fail to progress to clinical applications due to poor pharmacokinetic profiles, it was important to filter our screen for compounds with more favorable physicochemical properties. […] These criteria were selected due to multiple studies indicating compounds with low molecular weight and moderate lipophilicity are more likely to show favorable adsorption and clearance rates, and less toxicity due to target promiscuity. As such, controlling the physicochemical properties of inhibitors during the initial screening stages should select for better leads for future optimization and development. Based on these criteria, the top 20 inhibitors were selected for synthesis (Table S1). These parameters were also calculated for MA, FB23-2 and its precursor FB23 (Table S2). […]

FTO [2] = target: T2, FTO (Homo sapiens, UniProt Q9C0B1); conditions: reported (ref. 36); stated as selectivity against ALKBH5; cited from earlier work
T2 construct: SUMO (N); His10 (N); made in house; host or cells: E. coli BL21
T2 sequence (Q9C0B1 whole entry): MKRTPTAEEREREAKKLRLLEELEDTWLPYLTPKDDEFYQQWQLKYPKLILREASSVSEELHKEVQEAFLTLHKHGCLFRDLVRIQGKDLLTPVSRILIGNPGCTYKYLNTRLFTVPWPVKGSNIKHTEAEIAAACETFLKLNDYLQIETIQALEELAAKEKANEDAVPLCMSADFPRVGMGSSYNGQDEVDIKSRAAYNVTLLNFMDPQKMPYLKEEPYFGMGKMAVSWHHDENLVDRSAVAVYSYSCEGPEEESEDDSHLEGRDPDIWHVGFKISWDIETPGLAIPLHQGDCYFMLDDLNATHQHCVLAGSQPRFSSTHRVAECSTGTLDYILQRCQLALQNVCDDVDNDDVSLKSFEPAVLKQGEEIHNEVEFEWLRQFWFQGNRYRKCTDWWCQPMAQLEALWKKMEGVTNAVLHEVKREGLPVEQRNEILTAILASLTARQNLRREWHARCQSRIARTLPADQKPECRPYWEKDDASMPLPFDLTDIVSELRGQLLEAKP

MONOMAC6 and NB4 cells = conditions: fold, Huang et. al; cited from earlier work
FTO [3] = target: T2, FTO; assay: Fluorescence enzymatic inhibition assay (m6A7-Broccoli / DFHBI-1T), FTO; format: biochemical; conditions: for precipitation in assay buffer: dose response could not be determined
Description: In order to determine their efficacy as FTO inhibitors, the compounds were screened by a fluorescence enzymatic inhibition assay developed previously by the Jaffrey lab.^44 Briefly, a nonfluorescent methylated RNA substrate termed “m6A7-Broccoli” is incubated with FTO in the presence of 2-oxoglutarate (300 μM), (NH4)2Fe(SO4)2·6H2O (300 μM), and L-ascorbate (2 mM) for 2 hours at room temperature in reaction buffer (50 mM NaHEPES, pH 6).
as §1, §2

[4] = system: TS576 glioblastoma stem cells; assay: Tumorosphere (neurosphere) formation assay, TS576; format: cell-based, human; conditions: TS576, 30 μM, 2 days, vs vehicle control
Description: To understand the effects of our FTO inhibitors on the self-renewal properties of GSCs, tumorospheres cultured from the patient-derived GSC line TS576 were treated with 30 μM of FTO-04, FTO-10, FTO-11, or FTO-12 (FIG. 29A-29B; cell line gifted from the Furnari lab).^45, 46 The GSCs were cultured in sphere-forming assays for 24 hours, then treated with either inhibitors or DMSO control for 2 days. The size of the tumorospheres was calculated using ImageJ.
Early passaged GSCs were used to understand the efficacy of ALK-04 on the self-renewal capacity of GSCs by tumorsphere-formation assay as described earlier^10, 11. In brief, GSCs were seeded at 4×10^4 cells in 24 well plate and cultured for 3 days followed by treatment with ALK-04 inhibitors at 20 μM daily for 3 days. After 3 days of treatment the images of the tumorospheres were imaged with phase contrast microscope and size was measured with Image J, to understand the effects of drugs on the self-renewal of GSCs on sphere formation. This process was also repeated for healthy neural stem cells (hNSCs) treated daily with 20 μM ALK-04 for three days to assess the therapeutic ratio.

MOLT-4 = assay: High Throughput Screen for growth inhibition, MOLT-4; format: cell-based; conditions: MOLT-4, Leukemia; 3 days; unit not given
Description: (§3) The High Throughput Screen method is described below. The endpoint readout of this assay is based upon quantitation of ATP as an indicator of viable cells.
(§4) Cell lines that have been preserved in liquid nitrogen are thawed and expanded in growth media (see Table 1-3). Once cells have reached expected doubling times, screening begins. Cells are seeded in growth media in black 384-well tissue culture treated plates at 500-1500 cells per well (as noted in Analyzer). Cells are equilibrated in assay plates via centrifugation and placed at 37° C. 5% CO2 for twenty-four hours before treatment. […] Assay plates are incubated with compound for 3 days and are then analysed using CellTiter-Glo 2.0. All data points are collected via automated processes and are subject to quality control and analysed using Horizon's software.
(§5) Growth Inhibition (GI) is utilized as a measure of cell growth. The GI percentages are calculated by applying the following test and equation: If T<V_0: 100*(1−(T−V_0)/V_0) If T≥V_0: 100*(1−(T−V_0)/(V−V_0)) where T is the signal measure for a test article, V is the untreated/vehicle-treated control measure, and Vo is the untreated/vehicle control measure at time zero (also colloquially referred as T0 plates). This formula is derived from the Growth Inhibition calculation used in the National Cancer Institute's NCI-60 high throughput screen. For the purposes of this report, all data analysis was performed in Growth Inhibition (except where noted).
(§6) A GI of 100% represents complete growth inhibition (cytostasis) and in this case cells treated with compound for 3 days would have the same endpoint reading as TO control cells. A GI of 200% represents complete death (cytotoxicity) of all cells in the culture well and in this case the T reading at 3 days will be lower than the TO control (values near or at zero).
(§7) Horizon also provides Inhibition as a measure of cell viability. Inhibition levels of 0% represent no inhibition of cell growth by treatment. Inhibition of 100% represents no doubling of cell numbers during the treatment window. Both cytostatic and cytotoxic treatments can yield an Inhibition percentage of 100%. Inhibition percentage is calculated as the following: I=1−T/U where T is the treated and U is the untreated/vehicle control.

LUDLU-1 = assay: High Throughput Screen for growth inhibition, LUDLU-1; format: cell-based; conditions: LUDLU-1, LUSC; 3 days; unit not given
Description: as §3, §4, §5, §6
(§8) Horizon also provides Inhibition as a measure of cell viability. Inhibition levels of 0% represent no inhibition of cell growth by treatment. […] Inhibition percentage is calculated as the following: I=1−T/U where T is the treated and U is the untreated/vehicle control.

AGS = assay: High Throughput Screen for growth inhibition, AGS; format: cell-based; conditions: Gastric, 3 days, unit not given
Description: as §3, §4, §5, §6, §7

HEC-50B = assay: High Throughput Screen for growth inhibition, HEC-50B; format: cell-based; conditions: Endometrial (uterine), 3 days, unit not given
Description: as §3, §4
as §5, with “For the purposes of this report, all data analysis was performed in Growth Inhibition (except where noted).” left out

BICR16 = assay: High Throughput Screen for growth inhibition, BICR16; format: cell-based; conditions: BICR16, Head and Neck; 3 days; unit not given
Description: as §3, §4, §5, §6, §8

Kasumi-1 = assay: High Throughput Screen for growth inhibition, Kasumi-1; format: cell-based; conditions: Kasumi-1, Leukemia; 3 days; unit not given
Description: as §3, §4
as §5, with “For the purposes of this report, all data analysis was performed in Growth Inhibition (except where noted).” left out

HCT-116 = assay: High Throughput Screen for growth inhibition, HCT-116; format: cell-based; conditions: HCT-116, Colon; 3 days; unit not given
Description: as §3, §4
as §5, with “For the purposes of this report, all data analysis was performed in Growth Inhibition (except where noted).” left out

SW480 = assay: High Throughput Screen for growth inhibition, SW480; format: cell-based; conditions: SW480, Colon; 3 days; unit not given
Description: as §3, §4
as §5, with “For the purposes of this report, all data analysis was performed in Growth Inhibition (except where noted).” left out

SUM159PT = assay: High Throughput Screen for growth inhibition, SUM159PT; format: cell-based; conditions: Breast, 3 days, unit not given
Description: as §3, §4
as §5, with “For the purposes of this report, all data analysis was performed in Growth Inhibition (except where noted).” left out

- IC50 (ALKBH5): 29.8 ± 2.9 µM
SMILES: COC(=O)C1COC(c2ccccc2F)N1 (centres unmarked) [ALK-14]

- IC50 (ALKBH5): 18.2 ± 2.3 µM
SMILES: COC(=O)C1COC(c2ccccc2OC)N1 (centres unmarked) [ALK-15]

- estimated rate of passive diffusion relative to FB23 [1]: ~2.5
SMILES: Cc1noc(C)c1-c1cc(Cl)c(Nc2ccccc2C(=O)NO)c(Cl)c1 [FB23-2]
- inhibition of FTO at 50 μM (FTO [2]): little to no inhibition
- cellular concentration relative to FB23 (MONOMAC6 and NB4 cells): 3-10

- inhibition of ALKBH5 at the highest concentration measured (ALKBH5): no measurable inhibition
SMILES: Oc1ccc2cc(-c3cncnc3)ccc2c1 [FTO-1, 6-(pyrimidin-5-yl)naphthalen-2-ol]

- inhibition of ALKBH5 at the highest concentration measured (ALKBH5): no measurable inhibition
SMILES: COc1ccc2cc(-c3cncnc3)ccc2c1 [FTO-5, 5-(6-methoxynaphthalen-2-yl)pyrimidine]

- inhibition of ALKBH5 at the highest concentration measured (ALKBH5): no measurable inhibition
SMILES: Cc1ccc2cc(-c3cncnc3)ccc2n1 [FTO-7, 2-methyl-6-(pyrimidin-5-yl)quinoline]

- inhibition of ALKBH5 at the highest concentration measured (ALKBH5): no measurable inhibition
SMILES: COc1ccc2cc(-c3cnc(N)nc3)ccc2c1 [FTO-12, 5-(6-methoxynaphthalen-2-yl)pyrimidin-2-amine]
- size of tumorospheres [4]: significant reduction in size of the tumorospheres

- inhibition of ALKBH5 at the highest concentration measured (ALKBH5): no measurable inhibition
SMILES: COCCNc1ncc(-c2ccc(OCc3ccccc3)cc2)cn1 [FTO-18, 5-(4-(benzyloxy)phenyl)-N-(2-methoxyethyl)pyrimidin-2-amine]

Second part, the molecule before the results:

SMILES: COC(=O)C1COC(c2ccc(OC)cc2)N1 (centres unmarked) [ALK-12]
- IC50 (ALKBH5): 16.7 ± 2.6 µM

SMILES: COc1ncc(-c2cccc(OCc3ccccc3)c2)cn1 [FTO-3, 5-(3-(benzyloxy)phenyl)-2-methoxypyrimidine]
- precipitation in assay buffer (FTO [3]): significant precipitation in assay buffer

SMILES: Nc1ncc(-c2cccc(Nc3ccccc3)c2)cn1 [FTO-9, 5-(3-(phenylamino)phenyl)pyrimidin-2-amine]
- preference (selectivity) between FTO and ALKBH5 (FTO [3]; ratio of potency towards FTO and ALKBH5): almost ten times more potent towards ALKBH5

SMILES: Nc1ncc(-c2ccc3cc(O)ccc3c2)cn1 [FTO-10, 6-(2-aminopyrimidin-5-yl)naphthalen-2-ol]
- size of tumorospheres [4]: significant reduction in size of the tumorospheres

SMILES: COc1ncc(-c2ccc3nc(C)ccc3c2)cn1 [FTO-11, 6-(2-methoxypyrimidin-5-yl)-2-methylquinoline]
- size of tumorospheres [4]: significant reduction in size of the tumorospheres

SMILES: COCCNc1ncc(-c2ccc3cc(OC)ccc3c2)cn1 [FTO-15, N-(2-methoxyethyl)-5-(6-methoxynaphthalen-2-yl)pyrimidin-2-amine]
- precipitation in assay buffer (FTO [3]): significant precipitation in assay buffer

SMILES: c1ccc(-c2ccc(CNCC3(N4CCCC4)COC3)s2)cc1 [TR-FTO-38]
- Growth Inhibition (GI) Values (MOLT-4): 24.366
- Growth Inhibition (GI) Values (LUDLU-1): 31.952
- Growth Inhibition (GI) Values (AGS): 23.3
- Growth Inhibition (GI) Values (HEC-50B): 14.018
- Growth Inhibition (GI) Values (BICR16): 29.832

SMILES: Clc1ccccc1-c1ccc(CNCC2(N3CCCC3)COC2)o1 [TR-FTO-43 N]
- Growth Inhibition (GI) Values (Kasumi-1): 18.136
- Growth Inhibition (GI) Values (MOLT-4): 24.595
- Growth Inhibition (GI) Values (LUDLU-1): 28.561
- Growth Inhibition (GI) Values (AGS): 21.005
- Growth Inhibition (GI) Values (HCT-116): 31.451
- Growth Inhibition (GI) Values (SW480): 28.499
- Growth Inhibition (GI) Values (BICR16): 25.212

SMILES: FC1CCN(C2(CNCc3ccc(-c4ccccc4Cl)o3)COC2)C1 (centres unmarked) [TR-FTO-49 N]
- Growth Inhibition (GI) Values (MOLT-4): 27.521

SMILES: c1cncc(CNc2ccc(CNC3CC3)cn2)c1 [TR-YTH-05]
- Growth Inhibition (GI) Values (AGS): 6.35
- Growth Inhibition (GI) Values (SUM159PT): 8.629
